# Measurements reported in patent US20240368174A1, “Antiviral Heterocyclic Compounds” (Enanta Pharmaceuticals, Inc., priority 2023, published 2024).
# Assays:
# [1] = tested on: HMPV clinical isolate A2 strain TN 94-49; experiment: HMPV antiviral assay, Method 1 (LLC-MK2 cells, ATP-Lite); type: cell-based; details: human metapneumovirus, hMPV A2 TN/94-49, LLC-MK2 cells
# In short: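 LLC-MK2 cells (5,000/well) infected in suspension with HMPV A2 TN 94-49 at MOI 0.005 in serum-free OptiMEM with 2 μg/mL final TPCK-trypsin, compounds in duplicate from 2 μM top, 2.5-fold, 10 points. After 7 days at 37° C, cell health by ATP-Lite luminescence normalised to virus and cell controls; EC50 from four-parameter fit.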
# [2] = tested on: HMPV clinical isolate A2 strain TN 94-49; experiment: HMPV antiviral assay, Method 2 (LLC-MK2 cells with CP-100-356, ATP-Lite); type: cell-based; details: human metapneumovirus; hMPV A2 TN/94-49, LLC-MK2 cells with CP-100-356, Method 2
# In short: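 LLC-MK2 rhesus kidney cells (5,000/well) infected in suspension with HMPV A2 TN 94-49 at MOI 0.16, in serum-free medium with final 2 μg/mL TPCK-trypsin and 2 μM CP-100-356. Compounds tested in duplicate from 200 nM, 2.5-fold, 10 points; 7 days at 37 °C. Cell health by ATP-Lite luminescence; EC50 by four-parameter fit.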
SMILES,EC50 [1] [nM],EC50 [2] [nM]
COc1cc(C(=O)NC[C@](O)(c2cc3c(c(-c4ccc(F)c(Cl)c4Cl)n2)OC[C@]3(C)C(N)=O)C(F)(F)F)cc2cn(C(F)F)nc12 [Example 66],< 500,< 200
COc1cc(C(=O)NC[C@](O)(c2cc3c(c(-c4ccc(F)c(C)c4Cl)n2)OC[C@]3(C)C(N)=O)C2CC2)cc2cn(C3CC3)nc12 [Example 69],< 500,< 200
COc1cc(C(=O)NC[C@](O)(c2cc3c(c(-c4ccc(F)c(F)c4C)n2)OC[C@]3(C)C(N)=O)C2CC2)cc2cn(C3CC3)nc12 [Example 70],< 500,< 200
CCc1cc(-c2nc([C@@](O)(CNC(=O)c3cc(OC)c4nn(C5CC5)cc4c3)C3CC3)cc3c2OC[C@]3(C)C(N)=O)ccc1F [Example 71],> 500,> 200
COc1cc(C(=O)NC[C@](O)(c2cc3c(c(-c4cc(Cl)c(F)cc4F)n2)OC[C@]3(C)C(N)=O)C2CC2)cn2cc(C3CC3)nc12 [Example 77],< 500,< 200
COc1cc(C(=O)NC[C@@](O)(c2ccccc2)c2cc3c(c(-c4cc(Cl)c(F)cc4F)n2)OC[C@]3(C)C(N)=O)cc2oc(C3CC3)nc12 [Example 85],< 500,< 200
C[C@]1(C(N)=O)COc2c1cc([C@@](O)(CNC(=O)c1ccc3nc(C4CC4)oc3c1)c1ccccc1)nc2-c1cc(Cl)c(F)cc1F [Example 88],< 500,< 200
COc1cc(C(=O)NC[C@@](O)(c2ccccc2)c2cc3c(c(-c4cc(Cl)c(F)cc4F)n2)OC[C@]3(C)C(N)=O)cc2cc(C)nnc12 [Example 89],< 500,< 200
COc1cc(C(=O)NC[C@@](O)(c2ccccc2)c2cc3c(c(-c4cc(Cl)c(F)cc4F)n2)OC[C@]3(C)C(N)=O)cc2cc(C3CC3)nnc12 [Example 90],< 500,< 200
COc1cc(C(=O)NC[C@@](O)(c2ccc(C(F)(F)F)cc2)c2cc3c(c(-c4cc(Cl)c(F)cc4F)n2)OC[C@]3(C)C(N)=O)cc2cn(C3CC3)nc12 [Example 130],> 500,> 200
COc1cc(C(=O)NC[C@@](O)(c2cccnc2)c2cc3c(c(-c4cc(Cl)c(F)cc4F)n2)OC[C@]3(C)C(N)=O)cc2cn(C3CC3)nc12 [Example 131],< 500,< 200
COc1cc(C(=O)NC[C@@](O)(c2cccc(F)c2)c2cc3c(c(-c4cc(Cl)c(F)cc4F)n2)OC[C@]3(C)C(N)=O)cc2cn(C3CC3)nc12 [Example 132],< 500,< 200
COc1cc(C(=O)NC[C@@](O)(c2cccc(F)c2)c2cc3c(c(-c4cc(Cl)c(F)cc4F)n2)OC[C@]3(C)C(N)=O)cc2cc(C3CC3)nn12 [Example 133],< 500,< 200
[2H]C([2H])([2H])NC(=O)[C@@]1(C)COc2c1cc([C@@](O)(CNC(=O)c1cc(OC)c3nn(C4CC4)cc3c1)c1ccccc1)nc2-c1cc(Cl)c(F)cc1F [Example 140],< 500,< 200
COc1cc(C(=O)NC[C@@](O)(c2ccccc2)c2cc3c(c(-c4cc(Cl)ccc4F)n2)OC[C@]3(C)C(N)=O)cc2cn(C3CC3)nc12 [Example 144],< 500,< 200
COc1cc(C(=O)NC[C@@](O)(c2ccccc2)c2cc3c(c(-c4cc(Cl)ccc4F)n2)OC[C@]3(C)C(N)=O)cc2cn(C(F)F)nc12 [Example 145],< 500,< 200
COc1cc(C(=O)NC[C@@](O)(c2ccccc2)c2cc3c(c(-c4cc(Cl)ccc4F)n2)OC[C@]3(C)C(N)=O)cc2cc(C3CC3)nn12 [Example 146],< 500,< 200
COc1cc(C(=O)NC[C@@](O)(c2ccccc2)c2cc3c(c(-c4cc(C(F)(F)F)ccc4F)n2)OC[C@]3(C)C(N)=O)cc2cn(C3CC3)nc12 [Example 147],< 500,< 200
COc1cc(C(=O)NC[C@@](O)(c2ccccc2)c2cc3c(c(-c4cc(Cl)c(F)cc4F)n2)OC[C@]3(C)C(N)=O)cc2sc(N)nc12 [Example 157],< 500,< 200
COc1cc(C(=O)NC[C@@](O)(c2ccccc2)c2cc3c(c(-c4cc(Cl)c(F)cc4F)n2)OC[C@]3(C)C(N)=O)cc2cn(C3(F)CC3)nc12 [Example 158],< 500,< 200
COc1cccc([C@](O)(CNC(=O)c2cc(OC)c3nn(C4CC4)cc3c2)c2cc3c(c(-c4cc(Cl)c(F)cc4F)n2)OC[C@]3(C)C(N)=O)c1 [Example 160],< 500,< 200
COc1ccc([C@](O)(CNC(=O)c2cc(OC)c3nn(C4CC4)cc3c2)c2cc3c(c(-c4cc(Cl)c(F)cc4F)n2)OC[C@]3(C)C(N)=O)cc1 [Example 165],< 500,< 200

SMILES,EC50 [1] [nM],EC50 [2] [nM]
COc1ccc([C@](O)(CNC(=O)c2cc(OC)c3nn(C4(F)CC4)cc3c2)c2cc3c(c(-c4cc(Cl)c(F)cc4F)n2)OC[C@]3(C)C(N)=O)cc1 [Example 166],< 500,< 200
COc1cc(C(=O)NC[C@@](O)(c2ccccc2)c2cc3c(c(-c4cc(F)c(F)cc4F)n2)OC[C@]3(C)C(N)=O)cc2cn(C3(F)CC3)nc12 [Example 170],< 500,< 200
COc1cc(C(=O)NC[C@@](O)(c2ccccc2)c2cc3c(c(-c4cc(F)c(F)cc4F)n2)OC[C@]3(C)C(N)=O)cc2cn(C3CC3)nc12 [Example 171],< 500,< 200
COc1cc(C(=O)NC[C@@](O)(c2ccccc2)c2cc3c(c(-c4cc(F)c(F)cc4F)n2)OC[C@]3(C)C(N)=O)cc2cn(C(F)F)nc12 [Example 172],< 500,< 200
COc1cc(C(=O)NC[C@@](O)(c2ccsc2)c2cc3c(c(-c4cc(F)c(F)cc4F)n2)OC[C@]3(C)C(N)=O)cc2cn(C3(F)CC3)nc12 [Example 179],< 500,< 200
Cc1cnc2c(OC3CC3)cc(C(=O)NC[C@@](O)(c3ccccc3)c3cc4c(c(-c5cc(Cl)c(F)cc5F)n3)OC[C@]4(C)C(N)=O)cc2c1 [Example 182],< 500,< 200
Cc1cnc2c(OC(F)F)cc(C(=O)NC[C@@](O)(c3ccccc3)c3cc4c(c(-c5cc(Cl)c(F)cc5F)n3)OC[C@]4(C)C(N)=O)cc2c1 [Example 183],< 500,< 200
COc1cc(C(=O)NC[C@@](O)(c2ccccc2)c2cc3c(c(-c4cc(Cl)c(F)cc4F)n2)OC[C@]3(C)C(N)=O)cc2cc(Br)cnc12 [Example 185],< 500,< 200
COc1cc(C(=O)NC[C@@](O)(c2ccccc2)c2cc3c(c(-c4cc(Cl)c(F)cc4F)n2)OC[C@]3(C)C(N)=O)cc2cc(C(F)F)nnc12 [Example 186],> 500,< 200
COc1cc(C(=O)NC[C@@](O)(c2ccccc2)c2cc3c(c(-c4cc(Cl)c(F)cc4F)n2)OC[C@]3(C)C(N)=O)cc2cc(Cl)cnc12 [Example 187],< 500,< 200
COc1cc(C(=O)NC[C@@](O)(c2ccccc2)c2cc3c(c(-c4ccc(F)c(F)c4Cl)n2)OC[C@]3(C)C(N)=O)cc2cn(C(F)F)nc12 [Example 213],< 500,< 200
COc1cc(C(=O)NC[C@@](O)(c2ccccc2)c2cc3c(c(-c4ccc(F)c(Cl)c4Cl)n2)OC[C@]3(C)C(N)=O)cc2cn(C(F)F)nc12 [Example 258],< 500,< 200
COc1cc(C(=O)NC[C@@](O)(c2ccccc2)c2cc3c(c(-c4ccc(F)c(Cl)c4Cl)n2)OC[C@]3(C)C(N)=O)cc2cn(C3(F)CC3)nc12 [Example 259],< 500,< 200
COc1cc(C(=O)NC[C@@](O)(c2ccccc2)c2cc3c(c(-c4cccc(Cl)c4Cl)n2)OC[C@]3(C)C(N)=O)cc2cn(C3CC3)nc12 [Example 260],< 500,< 200
COc1cc(C(=O)NC[C@@](O)(c2ccccc2)c2cc3c(c(-c4cccc(Cl)c4Cl)n2)OC[C@]3(C)C(N)=O)cc2cn(C3(F)CC3)nc12 [Example 262],< 500,< 200
COc1cc(C(=O)NC[C@@](O)(c2ccc(F)cc2)c2cc3c(c(-c4ccc5c(c4Cl)OC(F)(F)O5)n2)OC[C@]3(C)C(N)=O)cc2cn(C3(F)CC3)nc12 [Example 263],< 500,< 200
COc1cc(C(=O)NC[C@@](O)(c2ccc(F)cc2)c2cc3c(c(-c4ccc5c(c4Cl)OC(F)(F)O5)n2)OC[C@]3(C)C(N)=O)cc2cn(C(F)F)nc12 [Example 264],< 500,< 200
C[C@]1(C(N)=O)COc2c1cc([C@@](O)(CNC(=O)c1cc(OC3CC3)c3nn(C(F)F)cc3c1)c1ccc(F)cc1)nc2-c1ccc2c(c1Cl)OC(F)(F)O2 [Example 265],< 500,< 200
C[C@]1(C(N)=O)COc2c1cc([C@@](O)(CNC(=O)c1cc(OC3CC3)c3nn(C4(F)CC4)cc3c1)c1ccccc1)nc2-c1cccc(Cl)c1Cl [Example 266],< 500,< 200
COc1cc(C(=O)NC[C@@](O)(c2cccc(F)c2)c2cc3c(c(-c4ccc(F)c(Cl)c4Cl)n2)OC[C@]3(C)C(N)=O)cc2cn(C3(F)CC3)nc12 [Example 269],< 500,< 200
COc1cc(C(=O)NC[C@@](O)(c2cccc(F)c2)c2cc3c(c(-c4ccc(F)c(Cl)c4Cl)n2)OC[C@]3(C)C(N)=O)cc2cn(C(F)F)nc12 [Example 270],< 500,< 200
Cc1nc2c(OC3CC3)cc(C(=O)NC[C@@](O)(c3ccccc3)c3cc4c(c(-c5ccc(F)c(Cl)c5Cl)n3)OC[C@]4(C)C(N)=O)cc2o1 [Example 271],< 500,< 200
